SMILES strings stand for the structures.

Sequence of PDE4B (Q07343 whole entry, species assumed): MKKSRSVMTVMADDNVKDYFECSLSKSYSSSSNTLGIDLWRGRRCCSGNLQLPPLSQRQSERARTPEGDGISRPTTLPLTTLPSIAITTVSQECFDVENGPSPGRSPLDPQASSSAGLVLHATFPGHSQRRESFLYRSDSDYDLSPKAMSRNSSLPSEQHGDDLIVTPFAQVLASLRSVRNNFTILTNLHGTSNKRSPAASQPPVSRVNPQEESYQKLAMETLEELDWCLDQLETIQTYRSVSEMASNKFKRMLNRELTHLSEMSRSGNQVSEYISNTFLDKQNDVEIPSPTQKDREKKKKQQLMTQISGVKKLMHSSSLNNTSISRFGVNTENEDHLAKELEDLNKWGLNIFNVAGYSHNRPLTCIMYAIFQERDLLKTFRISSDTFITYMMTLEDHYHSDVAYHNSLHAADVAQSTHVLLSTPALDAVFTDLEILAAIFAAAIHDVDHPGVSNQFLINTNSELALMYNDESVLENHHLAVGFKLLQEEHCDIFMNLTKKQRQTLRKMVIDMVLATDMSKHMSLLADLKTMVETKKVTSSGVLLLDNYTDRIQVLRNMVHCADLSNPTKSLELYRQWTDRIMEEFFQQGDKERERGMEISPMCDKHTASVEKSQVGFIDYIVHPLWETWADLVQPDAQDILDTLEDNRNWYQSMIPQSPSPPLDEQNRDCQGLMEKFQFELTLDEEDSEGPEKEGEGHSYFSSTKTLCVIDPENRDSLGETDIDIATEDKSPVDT

One test addresses PDE4B (Homo sapiens, UniProt Q07343). Kind of test: Scintillation Proximity Assay (SPA) of PDE4B enzyme activity ([H3]-cAMP cleavage). Format: biochemical. Conditions: test substance 1 μM; one-hour incubation of [H3]-cAMP with PDE4B enzyme at 30° C. The procedure: The inhibitions (in %) at 1 μM of the individual Example substances are given in the following Table of Examples and were determined as follows:
The Scintillation Proximity Assay (SPA) (GE Healthcare, No. TRKQ7090) was carried out by using the different affinities of cyclic 3′-5′-adenosinemonophosphate (cAMP, low affinity) and linear 5′-adenosinemonophosphate (AMP, high affinity) for yttrium silicate scintillator beads. The cAMP specific phosphodiesterase (PDE) PDE4B cleaves the 3′-phosphoester bond of tritium-labelled [H3]-cAMP to form [H3]-5′-AMP. This [H3]-AMP accumulates on the scintillator beads because of its higher affinity for them and causes scintillation events (flashes of light) which are measured in a Wallac Microbeta Scintillation Counter.
The experiment starts with a one-hour incubation of [H3]-cAMP with the PDE4B enzyme in assay buffer at 30° C., in each case once with the Example substance to be tested (in a concentration of 1 μM) and once without the Example substance to be tested.
After this incubation, the reaction is stopped by the addition of the beads. The beads have an opportunity to settle in the next 45 minutes, then the measurement is carried out in the Scintillation Counter. If the substance is capable of inhibiting the enzymatic activity of the PDE4B, less [H3]-AMP is produced during the incubation phase and fewer scintillation events can be measured.
In general terms: SPA uses beads or plates that emit light when radiolabelled molecules are held near them.
Usually inhibition stands for the relative decrease from the control value, in per cent. For the compound `CC(C)[C@H](CO)Nc1nc(N2CCC(c3ccc(Cl)cc3)CC2)nc2c1[S+]([O-])CC2` (stereo partly drawn) [Example 1, (R)-2-{2-[4-(4-chlorophenyl)-piperidin-1-yl]-5-oxo-6,7-dihydro-5H-5λ^4-thieno[3,2-d]pyrimidin-4-ylamino}-3-methylbutan-1-ol], at 1 µM the inhibition was 93%.

`[O-][S+]1CCc2nc(N3CCC(c4ccc(Cl)cc4)CC3)nc(NC3(CO)CC3)c21` (centres unmarked) [Example 2, (1-{2-[4-(4-Chlorophenyl)-Piperidin-1-Yl]-5-Oxo-6,7-Dihydro-5H-5λ^4-Thieno[3,2-d]Pyrimidin-4-Ylamino}-Cyclopropyl)-Methanol] came in with an inhibition at 1 µM of 94%.

In turn, `CCC[C@H](CO)Nc1nc(N2CCC(c3ccc(Cl)cc3)CC2)nc2c1[S+]([O-])CC2` (stereo partly drawn) [Example 3, (R)-2-{2-[4-(4-chlorophenyl)-piperidin-1-yl]-5-oxo-6,7-dihydro-5H-5λ^4-thieno[3,2-d]pyrimidin-4-ylamino}-pentan-1-ol] displayed an inhibition at 1 µM of 94%.

`CC(C)(O)[C@H](Nc1nc(N2CCC(c3ccc(Cl)cc3)CC2)nc2c1[S+]([O-])CC2)c1ccc(F)cc1` (stereo partly drawn) [Example 4, (R)-1-{2-[4-(4-chlorophenyl)-piperidin-1-yl]-5-oxo-6,7-dihydro-5H-5λ^4-thieno[3,2-d]pyrimidin-4-ylamino}-1-(4-fluorophenyl)-2-methylpropan-2-ol] had an inhibition at 1 µM of 91%.

In turn, `CN1C[C@@H](Nc2nc(N3CCC(c4ccc(Cl)cc4)CC3)nc3c2[S+]([O-])CC3)CCC1=O` (stereo partly drawn) [Example 5, (S)-5-{2-[4-(4-chlorophenyl)-piperidin-1-yl]-5-oxo-6,7-dihydro-5H-5λ^4-thieno[3,2-d]pyrimidin-4-ylamino}-1-methylpiperidin-2-one] gave an inhibition at 1 µM of 94%.

`[O-][S+]1CCc2nc(N3CCC(c4ccc(Cl)cc4)CC3)nc(NC3CCOCC3)c21` (centres unmarked) [Example 6, {2-[4-(4-chlorophenyl)-piperidin-1-yl]-5-oxo-6,7-dihydro-5H-5λ^4-thieno[3,2-d]pyrimidin-4-yl}-(tetrahydropyran-4-yl)-amine]: the inhibition at 1 µM worked out at 94%.

Take `Cc1cccc(C2CCN(c3nc4c(c(NC5CCOCC5)n3)[S+]([O-])CC4)CC2)c1` (centres unmarked) [Example 7]: the inhibition at 1 µM is 93%.

For `Cc1cccc(C2CCN(c3nc4c(c(NC5(CO)CC5)n3)[S+]([O-])CC4)CC2)c1` (centres unmarked) [Example 8], the inhibition at 1 µM came to 93%.

The compound `[O-][S+]1CCc2nc(N3CCC(c4cccc(F)c4)CC3)nc(NC3(CO)CC3)c21` (centres unmarked) [Example 9] came in with an inhibition at 1 µM of 95%.

Regarding `[O-][S+]1CCc2nc(N3CCC(c4ccc(F)cc4)CC3)nc(NC3CCOCC3)c21` (centres unmarked) [Example 10], 1 µM produced 93% inhibition.

Regarding `[O-][S+]1CCc2nc(N3CCC(c4ccc(F)cc4)CC3)nc(NC3(CO)CC3)c21` (centres unmarked) [Example 11], 1 µM produced 94% inhibition.

On to `CC(C)[C@H](CO)Nc1nc(N2CCC(c3c[nH]c4ccccc34)CC2)nc2c1[S+]([O-])CC2` (some centres unmarked) [Example 12], for which the inhibition at 1 µM stood at 94%.

In turn, `CC(C)[C@H](CO)Nc1nc(N2CCC(c3c[nH]cn3)CC2)nc2c1[S+]([O-])CC2` (some centres unmarked) [Example 13] yielded an inhibition at 1 µM of 71%.

With `CC(C)[C@H](CO)Nc1nc(N2CCC3(CC2)c2ccccc2NC(=O)N3C)nc2c1[S+]([O-])CC2` (stereo partly drawn) [Example 14, (R)-1-(4-(1-Hydroxy-3-Methylbutan-2-Ylamino)-5-Oxo-6,7-Dihydro-5H-5λ^4-Thieno[3,2-d]Pyrimidin-2-Yl)-3′-Methyl-1′H-Spiro[Piperidin-4,4′-Quinazolin]-2′(3′H)-One], the inhibition at 1 µM turned out to be 60%.

Compound `CC(C)[C@H](CO)Nc1nc(N2CCC3(CC2)CN(S(C)(=O)=O)c2ccccc23)nc2c1[S+]([O-])CC2` (some centres unmarked) [Example 15] showed an inhibition at 1 µM of 67%.

The compound `CC(C)[C@H](CO)Nc1nc(N2CCC(c3noc4ccccc34)CC2)nc2c1[S+]([O-])CC2` (stereo partly drawn) [Example 16, (R)-2-[2-(4-Benzo[d]Isoxazol-3-Yl-Piperidin-1-Yl)-5-Oxo-6,7-Dihydro-5H-5λ^4-Thieno[3,2-d]Pyrimidin-4-Ylamino]-3-Methylbutan-1-Ol] yielded an inhibition at 1 µM of 96%.

Compound `CC(C)[C@H](CO)Nc1nc(N2CCC(c3cccc(O)c3)CC2)nc2c1[S+]([O-])CC2` (some centres unmarked) [Example 17] returned an inhibition at 1 µM of 93%.

With `CC(C)[C@H](CO)Nc1nc(N2CCC(O)(c3cc(F)cc(F)c3)CC2)nc2c1[S+]([O-])CC2` (some centres unmarked) [Example 18], testing at 1 µM gave an inhibition of 92%.

`CC(C)[C@H](CO)Nc1nc(N2CCC(c3ccncc3)CC2)nc2c1[S+]([O-])CC2` (stereo partly drawn) [Example 19, (R)-3-Methyl-2-[5-Oxo-2-(3.4.5.6-Tetrahydro-2H-[4,4′]Bipyridinyl-1-Yl)-6,7-Dihydro-5H-5λ^4-Thieno[3,2-d]Pyrimidin-4-Ylamino]-Butan-1-Ol] showed an inhibition at 1 µM of 83%.

`CC(C)[C@H](CO)Nc1nc(N2CCC(c3ccc(C#N)cc3)CC2)nc2c1[S+]([O-])CC2` (some centres unmarked) [Example 20] came in with an inhibition at 1 µM of 94%.

`CC(C)[C@H](CO)Nc1nc(N2CCC3(CC2)OC(=O)Nc2ccccc23)nc2c1[S+]([O-])CC2` (some centres unmarked) [Example 21] returned an inhibition at 1 µM of 83%.

`CCc1[nH]c2ccc(F)cc2c1C1CCN(c2nc3c(c(N[C@@H](CO)C(C)C)n2)[S+]([O-])CC3)CC1` (stereo partly drawn) [Example 22, (R)-2-{2-[4-(2-Ethyl-5-Fluoro-1H-Indol-3-Yl)-Piperidin-1-Yl]-5-Oxo-6,7-Dihydro-5H-5λ^4-Thieno[3,2-d]Pyrimidin-4-Ylamino}-3-Methylbutan-1-Ol]: the inhibition at 1 µM was 86%.

On to `Cc1noc(C2CCN(c3nc4c(c(N[C@@H](CO)C(C)C)n3)[S+]([O-])CC4)CC2)n1` (some centres unmarked) [Example 23], for which at 1 µM the inhibition was 85%.

Compound `CC(C)[C@H](CO)Nc1nc(N2CCC(c3cccc(Cl)c3)CC2)nc2c1[S+]([O-])CC2` (some centres unmarked) [Example 24] yielded an inhibition at 1 µM of 94%.

Compound `CC(C)[C@H](CO)Nc1nc(N2CCC(C#N)(c3ccccc3)CC2)nc2c1[S+]([O-])CC2` (some centres unmarked) [Example 25] returned an inhibition at 1 µM of 90%.

In the case of `[O-][S+]1CCc2nc(N3CCC(c4c[nH]c5ccccc45)CC3)nc(NC3(CO)CC3)c21` (centres unmarked) [Example 26], testing at 1 µM gave an inhibition of 96%.

`[O-][S+]1CCc2nc(N3CCC(c4c[nH]cn4)CC3)nc(NC3(CO)CC3)c21` (centres unmarked) [Example 27]: at 1 µM the inhibition was 87%.

`CN1C(=O)Nc2ccccc2C12CCN(c1nc3c(c(NC4(CO)CC4)n1)[S+]([O-])CC3)CC2` (centres unmarked) [Example 28, 1-(4-(1-Hydroxymethylcyclopropylamino)-5-Oxo-6,7-Dihydro-5H-5λ^4-Thieno[3,2-d]Pyrimidin-2-Yl)-3′-Methyl-1′H-Spiro[Piperidin-4,4′-Quinazolin]-2′(3′H)-One]: the inhibition at 1 µM is 85%.

`CCOC(=O)c1ccc2c(C3CCN(c4nc5c(c(NC6(CO)CC6)n4)[S+]([O-])CC5)CC3)c[nH]c2c1` (centres unmarked) [Example 29, ethyl 3-{1-[4-(1-hydroxymethylcyclopropylamino)-5-oxo-6,7-dihydro-5H-5λ^4-thieno[3,2-d]pyrimidin-2-yl]-piperidin-4-yl}-1H-indole-6-carboxylate] showed an inhibition at 1 µM of 97%.

`CS(=O)(=O)N1CC2(CCN(c3nc4c(c(NC5(CO)CC5)n3)[S+]([O-])CC4)CC2)c2ccccc21` (centres unmarked) [Example 30] had an inhibition at 1 µM of 89%.

`[O-][S+]1CCc2nc(N3CCC(c4noc5ccccc45)CC3)nc(NC3(CO)CC3)c21` (centres unmarked) [Example 31] registered an inhibition at 1 µM of 97%.

Consider `[O-][S+]1CCc2nc(N3CCC(c4cccc(O)c4)CC3)nc(NC3(CO)CC3)c21` (centres unmarked) [Example 32], for which the inhibition at 1 µM is 96%.

`[O-][S+]1CCc2nc(N3CCC(O)(c4cc(F)cc(F)c4)CC3)nc(NC3(CO)CC3)c21` (centres unmarked) [Example 33] displayed an inhibition at 1 µM of 95%.

`[O-][S+]1CCc2nc(N3CCC(c4ccncc4)CC3)nc(NC3(CO)CC3)c21` (centres unmarked) [Example 34]: testing at 1 µM gave an inhibition of 92%.

Compound `N#Cc1ccc(C2CCN(c3nc4c(c(NC5(CO)CC5)n3)[S+]([O-])CC4)CC2)cc1` (centres unmarked) [Example 35] had an inhibition at 1 µM of 95%.

`O=C1Nc2ccccc2C2(CCN(c3nc4c(c(NC5(CO)CC5)n3)[S+]([O-])CC4)CC2)O1` (centres unmarked) [Example 36] displayed an inhibition at 1 µM of 92%.

`CCc1[nH]c2ccc(F)cc2c1C1CCN(c2nc3c(c(NC4(CO)CC4)n2)[S+]([O-])CC3)CC1` (centres unmarked) [Example 37, (1-{2-[4-(2-Ethyl-5-Fluoro-1H-Indol-3-Yl)-Piperidin-1-Yl]-5-Oxo-6,7-Dihydro-5H-5λ^4-Thieno[3,2-d]Pyrimidin-4-Ylamino}-Cyclopropyl)-Methanol] displayed an inhibition at 1 µM of 92%.

With `Cc1noc(C2CCN(c3nc4c(c(NC5(CO)CC5)n3)[S+]([O-])CC4)CC2)n1` (centres unmarked) [Example 38], testing at 1 µM gave an inhibition of 92%.

In turn, `[O-][S+]1CCc2nc(N3CCC(c4cccc(Cl)c4)CC3)nc(NC3(CO)CC3)c21` (centres unmarked) [Example 39] gave an inhibition at 1 µM of 96%.

In the case of `N#CC1(c2ccccc2)CCN(c2nc3c(c(NC4(CO)CC4)n2)[S+]([O-])CC3)CC1` (centres unmarked) [Example 40], the inhibition at 1 µM was determined as 94%.

Staying with this test, now noted: test substance 1 μM; one-hour incubation with [H3]-cAMP at 30° C.
For the compound `NC1CC1Nc1nc(N2CCC(c3ccc(Cl)cc3)CC2)nc2c1[S+]([O-])CC2` (single isomer, unassigned) [Example 232, N-{2-[4-(4-Chlorophenyl)-Piperidin-1-Yl]-5-Oxo-6,7-Dihydro-5H-5λ^4-Thieno[3,2-d]Pyrimidin-4-Yl}-Cyclopropan-1,2-Diamine], at 1 µM the inhibition was 84%.

For the origin of these results see patent publication US8754073B2, “Substituted piperazino-dihydrothienopyrimidines” (Boehringer Ingelheim International GmbH, priority 2007, dated 2014).
